Measured values published in ChEMBL document CHEMBL5505982, “Design, synthesis, biological evaluation and in silico studies of novel quinoline derivatives as potential radioprotective molecules targeting the TLR2 and p53 pathways” (Eur J Med Chem, 2024).
The source made the active and inactive calls. No cut-off for these calls is given here.

Tests used:
Mus musculus [1] = experiment: Radioprotective activity in irradiated C57BL/6J mouse model assessed as increase in HGB count at 300 mg/kg, ip preincubated with compound for 15 to 1440 mins followed by irradiation with 6.5 Gy and measured after 1 to 10 days of radiation; assay type: functional, organism-based
AHH-1 [2] = experiment: Induction of apoptosis in human AHH-1 cells assessed as late apoptotic cells preincubated with compound for 24 hrs followed by irradiation with 6 Gy and measured after 24 hrs of radiation by Annexin V-FITC/PI staining based flow cytometry analysis (reference value: 29.8%); assay type: functional; details: time 48 hrs
AHH-1 [3] = experiment: Cytotoxicity against human AHH-1 cells assessed as inhibition of cell growth incubated for 24 hrs by CCK-8 assay; assay type: functional, cell-based; details: AHH-1, 24 h
Toll-like receptor 2 [4] = target: T1, Toll-like receptor 2 (Homo sapiens, UniProt O60603); experiment: Binding affinity to TLR2 (unknown origin) assessed as dissociation constant by SPR analysis
Mus musculus [5] = experiment: Radioprotective activity in C57BL/6J mouse assessed as survival rate at 30 mg/kg, ip preincubated with compound for 15 to 1440 mins followed by irradiation and measured at day 30; assay type: functional; details: light or radiation study, time 15-44640 min
Toll-like receptor 2 [6] = target: T1, Toll-like receptor 2; experiment: Binding affinity to TLR2 (unknown origin) by SPR analysis; details: filed as agonist, dose 3-100 µM
Mus musculus [7] = experiment: Radioprotective activity against radiation-induced intestinal injury C57BL/6J mouse model assessed as increase in splenic index at 300 mg/kg, ip preincubated with compound for 15 to 1440 mins followed by irradiation with 13 Gy and measured after 84 hrs of radiation by H and E staining based analysis; assay type: functional, organism-based; details: time 15-6480 min
AHH-1 [8] = experiment: Induction of apoptosis in human AHH-1 cells assessed as necrotic cells preincubated with compound for 24 hrs followed by irradiation with 4 Gy and measured after 24 hrs of radiation by Annexin V-FITC/PI staining based flow cytometry analysis (reference value: 1.06%); assay type: functional; details: time 48 hrs
Mus musculus [9] = experiment: Radioprotective activity in irradiated C57BL/6J mouse model assessed as increase in WBC count at 300 mg/kg, ip preincubated with compound for 15 to 1440 mins followed by irradiation with 6.5 Gy and measured on day 1 (reference value: 43.39%); assay type: functional; details: time 15-2880 min
AHH-1 [10] = experiment: Induction of apoptosis in human AHH-1 cells assessed as necrotic cells preincubated with compound for 24 hrs followed by irradiation with 8 Gy and measured after 24 hrs of radiation by Annexin V-FITC/PI staining based flow cytometry analysis (reference value: 4.86%); assay type: functional; details: time 48 hrs
AHH-1 [11] = experiment: Induction of apoptosis in human AHH-1 cells assessed as early apoptotic cells preincubated with compound for 24 hrs followed by irradiation with 6 Gy and measured after 24 hrs of radiation by Annexin V-FITC/PI staining based flow cytometry analysis (reference value: 14.1%); assay type: functional; details: time 48 hrs
Mus musculus [12] = experiment: Radioprotective activity against radiation-induced intestinal injury C57BL/6J mouse model assessed as increase in villi length at 300 mg/kg, ip preincubated with compound for 15 to 1440 mins followed by irradiation with 13 Gy and measured after 84 hrs of radiation by H and E staining based analysis; assay type: functional, organism-based; details: time 15-6480 min
Mus musculus [13] = experiment: Radioprotective activity in irradiated C57BL/6J mouse model assessed as increase in RBC count at 300 mg/kg, ip preincubated with compound for 15 to 1440 mins followed by irradiation with 6.5 Gy and measured after 13 days of radiation; assay type: functional, organism-based; details: Erythrocyte, time 15-20160 min

T1 sequence (O60603 whole entry): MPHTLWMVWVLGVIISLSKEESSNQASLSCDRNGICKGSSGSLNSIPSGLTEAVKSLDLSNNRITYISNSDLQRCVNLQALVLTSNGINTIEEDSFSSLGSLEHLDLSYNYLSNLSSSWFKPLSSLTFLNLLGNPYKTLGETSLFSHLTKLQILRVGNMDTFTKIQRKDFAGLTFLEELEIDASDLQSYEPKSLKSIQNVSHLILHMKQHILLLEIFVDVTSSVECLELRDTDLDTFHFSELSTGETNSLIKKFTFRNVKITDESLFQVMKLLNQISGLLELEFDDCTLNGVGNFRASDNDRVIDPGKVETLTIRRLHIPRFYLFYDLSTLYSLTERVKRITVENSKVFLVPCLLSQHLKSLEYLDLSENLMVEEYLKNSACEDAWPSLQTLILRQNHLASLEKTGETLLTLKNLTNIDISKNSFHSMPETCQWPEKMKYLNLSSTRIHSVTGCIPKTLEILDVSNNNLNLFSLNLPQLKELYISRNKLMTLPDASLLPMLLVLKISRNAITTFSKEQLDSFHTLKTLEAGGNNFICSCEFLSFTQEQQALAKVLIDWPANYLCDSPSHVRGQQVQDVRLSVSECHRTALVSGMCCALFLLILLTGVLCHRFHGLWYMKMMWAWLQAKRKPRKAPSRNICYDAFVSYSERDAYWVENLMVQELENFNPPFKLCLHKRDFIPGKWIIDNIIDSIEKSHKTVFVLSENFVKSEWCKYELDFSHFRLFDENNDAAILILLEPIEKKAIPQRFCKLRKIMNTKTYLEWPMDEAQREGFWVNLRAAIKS

Compound: [O-][S+](Cc1ccc(F)cc1)c1ccc2cc(Br)ccc2n1 (stereo not drawn)
- Activity (Mus musculus [1]): inactive
- Activity (AHH-1 [2]): 16.2%
- IC50 (AHH-1 [3]): 154 µM
- Kd (Toll-like receptor 2 [4]): 3.56 µM
- survival at 30 mg/kg (Mus musculus [5]): 80%
- Activity (Toll-like receptor 2 [6]): Dose-Dependent Effect
- Activity (Mus musculus [7]): Active
- Activity (AHH-1 [8]): 1.4%
- Activity (Mus musculus [9]): 38.66%
- Activity (AHH-1 [10]): 4%
- Activity (AHH-1 [11]): 13.7%
- Activity (Mus musculus [12]): Active
- Activity (Mus musculus [13]): Active
